Results reported in patent publication US4894458A, “Quinolonecarboxylic acid derivatives and their preparation” (Kyorin Pharmaceutical Co., Ltd., priority 1986, dated 1990).
Values after ≈ are worked out from the molar mass of the structure shown. Like-named read-outs stand apart in the source and are kept apart here.

Legend:
Type in all cases: cell-based
[1] = system: Enterobacter cloacae IID 977; test: In vitro antibacterial activity (aerobic bacteria), MIC
[2] = system: Salmonella enteritidis IID 604; test: as above; settings: Salmonella enterica
[3] = system: Bacillus subtilis PCI 219; test: as above
[4] = system: Escherichia coli NIHJ JC-2; test: as above; settings: NIHJJC2, aerobic, Gram -, 10^6 cells/ml
B. fragilis 0558 = test: In vitro antibacterial activity (anaerobic bacteria), MIC; settings: Bacteroides fragilis
P. maltophilia GIFU 2491 = test: In vitro antibacterial activity (aerobic bacteria), MIC; settings: Stenotrophomonas maltophilia, GIFU2491
[5] = system: Citrobacter freundii IID 976; test: as above; settings: Citrobacter freundii, IID976, aerobic, Gram -, 10^6 cells/ml
P. aeruginosa IFO 12689 = test: as above; settings: Pseudomonas aeruginosa, IFO12689
Pst micros UPI 5464-1 = test: microbe, parasite or virus in culture
[6] = system: Alcaligenes faecalis 0114002; test: In vitro antibacterial activity (aerobic bacteria), MIC; settings: Alcaligenes faecalis, 0114002, aerobic, Gram -, 10^6 cells/ml
[7] = system: Eubacterium lentum GAI 5242; test: In vitro antibacterial activity (anaerobic bacteria), MIC; settings: Eggerthella lenta, GAI5242
[8] = system: Clostridium difficile I-E; test: as above; settings: Clostridioides difficile
B. fragilis 25285 = test: as above; settings: Bacteroides fragilis
[9] = system: Veillonella parvula KYA 10790; test: as above
[10] = system: Bacteroides fragilis GM 7000; test: as above
[11] = system: Propionibacterium acens 11828; test: as above
P. cepacia GIFU 518 = test: In vitro antibacterial activity (aerobic bacteria), MIC; settings: Burkholderia cepacia, GIFU518, aerobic, Gram -, 10^6 cells/ml
C. ramosum = test: In vitro antibacterial activity (anaerobic bacteria), MIC; settings: Thomasclavelia ramosa
C. perfringens KYA 13123 = test: microbe, parasite or virus in culture; settings: Clostridium perfringens, KYA13123
P. aeruginosa IID 1210 = test: In vitro antibacterial activity (aerobic bacteria), MIC; settings: Pseudomonas aeruginosa, IID1210, aerobic, Gram -, 10^6 cells/ml
[12] = system: Yersinia enterocolitica IID 981; test: microbe, parasite or virus in culture; settings: IID981
[13] = system: Peptococcus magnus KY 017; test: In vitro antibacterial activity (anaerobic bacteria), MIC; settings: Finegoldia magna, KY017, Gram +, 10^6 cells/ml, read-out: MIC
Description: (§1) Minimal inhibitory concentrations (MICs) were determined in accordance with the method recommended by Japan Society of Chemotherapy.

[14] = system: Peptostreptococcus anaerobius KYA 27337; test: as above
B. distasonis 8503 = test: as above; settings: Parabacteroides distasonis, Gram -, 10^6 cells/ml
[15] = system: B. thetaiotaomicron (0661); test: as above; settings: Bacteroides thetaiotaomicron
[16] = system: Klebsiella pneumoniae KY(GN)6445; test: In vitro antibacterial activity (aerobic bacteria), MIC
F. varium KYA 8501 = test: In vitro antibacterial activity (anaerobic bacteria), MIC; settings: Fusobacterium varium, KYA8501
K. pneumoniae 1-220S = test: In vitro antibacterial activity (aerobic bacteria), MIC; settings: Klebsiella pneumoniae, 1220S, Gram -, 10^6 cells/ml
Description: as §1

Shigella sonnei IID 969 = test: as above; settings: IID969, Gram -, 10^6 cells/ml
Description: as §1

[17] = system: Proteus vulgaris IFO 3167; test: as above; settings: IFO3167, Gram -, 10^6 cells/ml
Description: as §1

[18] = system: Acinetobacter anitratus IID 876; test: as above; settings: Acinetobacter calcoaceticus, IID876, Gram -, 10^6 cells/ml, read-out: MIC
Description: as §1

E. coli ATCC 10536 = test: as above; settings: Escherichia coli, ATCC10536, Gram -, 10^6 cells/ml
Description: as §1

P. mirabilis IID 994 = test: as above; settings: Proteus mirabilis, IID994, Gram -, 10^6 cells/ml
Description: as §1

[19] = system: Morganella morganii IID 602; test: as above; settings: Morganella morganii, IID602, Gram -, 10^6 cells/ml, read-out: MIC
Description: as §1

[20] = system: S. aureus IID 670 (Terajima); test: as above; settings: Staphylococcus aureus, IID670, Gram +, 10^6 cells/ml
Description: as §1

[21] = system: Serratia marcescens IID 618; test: as above; settings: IID618, Gram -, 10^6 cells/ml
Description: as §1

[22] = system: Pseudomonas aeruginosa V-1; test: as above; settings: Pseudomonas aeruginosa, V1, aerobic; Gram -; 10^6 cells/ml; read-out: MIC
Description: as §1

S. epidermidis IID 866 = test: as above; settings: Staphylococcus epidermidis, IID866, Gram +, 10^6 cells/ml
Description: as §1

[23] = system: Staphylococcus aureus 209 P; test: as above; settings: Gram +, 10^6 cells/ml
Description: as §1

[24] = system: Fusobacterium necrophorum S-45; test: In vitro antibacterial activity (anaerobic bacteria), MIC; settings: S45, anaerobic, Gram -, 10^6 cells/ml, read-out: MIC
[25] = aerobic, Gram -, 10^6 cells/ml, read-out: MIC
[26] = anaerobic, Gram -, 10^6 cells/ml, read-out: MIC
[27] = anaerobic, Gram +, 10^6 cells/ml, read-out: MIC

Cc1c(N2C[C@@H](C)[C@@H](N)C2)c(F)cc2c(=O)c(C(=O)O)cn(C3CC3)c12 (relative stereo) [Ex. 28, 7-(3,4-cis-3-Amino-4-methyl-1-pyrrolidinyl)-1-cyclopropyl-6-fluoro-1,4-dihydro-8-methyl-4-oxo-3-quinolinecarboxylic acid] gave an MIC ([1]; IID977) of 0.025 µg/mL (≈ 0.0696 µM), an MIC [2] of 0.025 µg/mL (≈ 0.0696 µM) and an MIC ([3]; PCI219) of 0.0125 µg/mL (≈ 0.0348 µM). For the same compound, the MIC [4] was 0.0063 µg/mL (≈ 0.0175 µM), the MIC (B. fragilis 0558) was 0.1 µg/mL (≈ 0.278 µM) and the MIC (P. maltophilia GIFU 2491) was 0.1 µg/mL (≈ 0.278 µM). The MIC [5] was 0.0125 µg/mL (≈ 0.0348 µM), the MIC (P. aeruginosa IFO 12689) was 0.39 µg/mL (≈ 1.09 µM) and the MIC (Pst micros UPI 5464-1) was 0.05 µg/mL (≈ 0.139 µM). For the same compound, the MIC [6] was 0.1 µg/mL (≈ 0.278 µM), the MIC [7] was 0.05 µg/mL (≈ 0.139 µM) and the MIC [8] was 0.39 µg/mL (≈ 1.09 µM). The MIC (B. fragilis 25285) was 0.1 µg/mL (≈ 0.278 µM), the MIC ([9]; KYA10790) was 0.1 µg/mL (≈ 0.278 µM) and the MIC ([10]; GM7000) was 0.2 µg/mL (≈ 0.556 µM). It also gave an MIC [11] of 0.78 µg/mL (≈ 2.17 µM), an MIC (P. cepacia GIFU 518) of 0.39 µg/mL (≈ 1.09 µM) and an MIC (C. ramosum; anaerobic, Gram +, 10^6 cells/ml) of 0.78 µg/mL (≈ 2.17 µM). It also gave an MIC (C. perfringens KYA 13123) of 0.1 µg/mL (≈ 0.278 µM), an MIC (P. aeruginosa IID 1210) of 0.39 µg/mL (≈ 1.09 µM) and an MIC [12] of 0.0125 µg/mL (≈ 0.0348 µM). It also gave an MIC [13] of 0.025 µg/mL (≈ 0.0696 µM), an MIC ([14]; KYA27337) of 0.2 µg/mL (≈ 0.556 µM) and an MIC (B. distasonis 8503) of 0.39 µg/mL (≈ 1.09 µM). For the same compound, the MIC [15] was 0.2 µg/mL (≈ 0.556 µM), the MIC [16] was 0.0125 µg/mL (≈ 0.0348 µM) and the MIC (F. varium KYA 8501) was 0.78 µg/mL (≈ 2.17 µM). It also gave an MIC (K. pneumoniae 1-220S) of 0.05 µg/mL (≈ 0.139 µM), an MIC (Shigella sonnei IID 969) of 0.0063 µg/mL (≈ 0.0175 µM) and an MIC [17] of 0.0063 µg/mL (≈ 0.0175 µM). The MIC [18] was 0.05 µg/mL (≈ 0.139 µM), the MIC (E. coli ATCC 10536) was 0.0063 µg/mL (≈ 0.0175 µM) and the MIC (P. mirabilis IID 994) was 0.025 µg/mL (≈ 0.0696 µM). The MIC [19] was 0.025 µg/mL (≈ 0.0696 µM), the MIC [20] was 0.025 µg/mL (≈ 0.0696 µM) and the MIC [21] was 0.05 µg/mL (≈ 0.139 µM). For the same compound, the MIC [22] was 0.1 µg/mL (≈ 0.278 µM), the MIC (S. epidermidis IID 866) was 0.05 µg/mL (≈ 0.139 µM) and the MIC [23] was 0.025 µg/mL (≈ 0.0696 µM).
Cc1c(N2CCC(N)C2)c(F)cc2c(=O)c(C(=O)O)cn(C3CC3)c12 (stereo not shown) [Exp. 18, 7-(3-Amino-1-pyrrolidinyl)-1-cyclopropyl-6-fluoro-1,4-dihydro-8-methyl-4-oxo-3-quinolinecarboxylic acid] gave an MIC ([1]; IID977, aerobic, Gram -, 10^6 cells/ml, read-out: MIC) of 0.025 µg/mL (≈ 0.0724 µM), an MIC [2, 25] of 0.025 µg/mL (≈ 0.0724 µM) and an MIC ([3]; PCI219, aerobic, Gram +, 10^6 cells/ml, read-out: MIC) of 0.025 µg/mL (≈ 0.0724 µM). For the same compound, the MIC ([4]; read-out: MIC) was no more than 0.0032 µg/mL, the MIC (B. fragilis 0558; [26]) was 0.1 µg/mL (≈ 0.29 µM) and the MIC (P. maltophilia GIFU 2491; [25]) was 0.1 µg/mL (≈ 0.29 µM). It also gave an MIC ([5]; read-out: MIC) of 0.025 µg/mL (≈ 0.0724 µM), an MIC (P. aeruginosa IFO 12689; [25]) of 0.2 µg/mL (≈ 0.579 µM) and an MIC (Pst micros UPI 5464-1; [27]) of 0.1 µg/mL (≈ 0.29 µM). It also gave an MIC ([6]; read-out: MIC) of 0.1 µg/mL (≈ 0.29 µM), an MIC [7, 27] of 0.2 µg/mL (≈ 0.579 µM) and an MIC [8, 27] of 0.78 µg/mL (≈ 2.26 µM). For the same compound, the MIC (B. fragilis 25285; [26]) was 0.2 µg/mL (≈ 0.579 µM), the MIC ([9]; KYA10790, anaerobic, Gram -, 10^6 cells/ml, read-out: MIC) was 0.1 µg/mL (≈ 0.29 µM) and the MIC ([10]; GM7000, anaerobic, Gram -, 10^6 cells/ml, read-out: MIC) was 0.2 µg/mL (≈ 0.579 µM). For the same compound, the MIC [11, 27] was 0.78 µg/mL (≈ 2.26 µM), the MIC (P. cepacia GIFU 518; read-out: MIC) was 0.2 µg/mL (≈ 0.579 µM) and the MIC (C. ramosum) was 1.56 µg/mL (≈ 4.52 µM). It also gave an MIC (C. perfringens KYA 13123) of 0.05 µg/mL (≈ 0.145 µM), an MIC [24] of 0.1 µg/mL (≈ 0.29 µM) and an MIC (P. aeruginosa IID 1210; read-out: MIC) of 0.2 µg/mL (≈ 0.579 µM). The MIC [12] was 0.05 µg/mL (≈ 0.145 µM), the MIC [13] was 0.05 µg/mL (≈ 0.145 µM) and the MIC ([14]; KYA27337, anaerobic, Gram +, 10^6 cells/ml, read-out: MIC) was 0.1 µg/mL (≈ 0.29 µM). The MIC (B. distasonis 8503; read-out: MIC) was 0.39 µg/mL (≈ 1.13 µM), the MIC [15, 26] was 0.78 µg/mL (≈ 2.26 µM) and the MIC [16, 25] was 0.025 µg/mL (≈ 0.0724 µM). The MIC (F. varium KYA 8501; [26]) was 0.78 µg/mL (≈ 2.26 µM), the MIC (K. pneumoniae 1-220S) was 0.05 µg/mL (≈ 0.145 µM) and the MIC (Shigella sonnei IID 969) was 0.0125 µg/mL (≈ 0.0362 µM). It also gave an MIC [17] of 0.0125 µg/mL (≈ 0.0362 µM), an MIC [18] of 0.05 µg/mL (≈ 0.145 µM) and an MIC (E. coli ATCC 10536) of 0.0125 µg/mL (≈ 0.0362 µM). For the same compound, the MIC (P. mirabilis IID 994) was 0.0125 µg/mL (≈ 0.0362 µM), the MIC [19] was 0.05 µg/mL (≈ 0.145 µM) and the MIC [20] was 0.05 µg/mL (≈ 0.145 µM). The MIC [21] was 0.05 µg/mL (≈ 0.145 µM), the MIC [22] was 0.05 µg/mL (≈ 0.145 µM) and the MIC (S. epidermidis IID 866) was 0.05 µg/mL (≈ 0.145 µM). The MIC [23] was 0.05 µg/mL (≈ 0.145 µM).
